Assay results from patent US11602534B2, “Pyrimidine derivative kinase inhibitors” (HEFEI INSTITUTES OF PHYSICAL SCIENCE, CHINESE ACADEMY OF …, priority 2017, dated 2023).

Legend:
[1] = tested on: P210-BaF3; experiment: Proliferation of P210-BaF3 cells, CCK8 cell viability assay; format: cell-based; conditions: Mus musculus, 72 hours, stably expressing BCR-ABL mutant activated kinase
How it was run: (§1)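 Human kinase-region sequences were PCR-amplified, fused behind N-terminal TEL in MSCV-Puro and stably introduced into mouse BaF3 by retrovirus. IL-3 was then removed to give kinase-dependent lines. Compound effects on these and on parental BaF3 are scored as GI50 (μM) via CCK8 viable-cell quantification.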

[2] = tested on: TEL-PDGFRα-BaF3; experiment: Proliferation of TEL-PDGFRα-BaF3 cells, CCK8 cell viability assay; format: cell-based; conditions: Mus musculus, 72 hours, stably expressing PDGFRα kinase
How it was run: (§2)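 Growth inhibition is expressed as GI50 in μM, with living-cell number estimated by reductive dehydrogenase activity in a CCK8 assay. The engineered BaF3 lines express TEL-fused human cKIT, PDGFRα or PDGFRβ and proliferate without IL-3 only through that kinase.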

[3] = tested on: TEL-VEGFR2-BaF3; experiment: Proliferation of TEL-VEGFR2-BaF3 cells, CCK8 cell viability assay; format: cell-based; conditions: Mus musculus, 72 hours, stably expressing VEGFR2 kinase
How it was run: as §1

[4] = tested on: P210/T315I-BaF3; experiment: Proliferation of P210/T315I-BaF3 cells, CCK8 cell viability assay; format: cell-based; conditions: Mus musculus, 72 hours, stably expressing BCR-ABL/T315I
How it was run: as §1

[5] = tested on: Tel-RET-BaF3; experiment: Proliferation of Tel-RET-BaF3 cells, CCK8 cell viability assay; format: cell-based; conditions: Mus musculus, 72 hours, stably expressing RET kinase
Source text: In this example the following cells were used: […] (purchased from ATCC), mouse P210-BaF3 (stably expressing BCR-ABL mutant activated kinase), mouse P210/T315I-BaF3 (stably expressing BCR-ABL/T315I mutant activated kinase), mouse FLT3-ITD-BaF3 (stably expressing FLT3/ITD mutant activated kinase), mouse TEL-FLT3-BaF3 (stably expressing FLT3 kinase), mouse TEL-cKIT-BaF3 (stably expressing cKIT kinase), mouse BaF3-tel/T670I-cKit (stably expressing cKIT/T670I mutant activated kinase), mouse Tel-VEGFR2-BaF3 (stably expressing VEGFR2 kinase), mouse Tel-PDGFRα-BaF3 (stably expressing PDGFRα kinase), mouse Tel-PDGFRβ-BaF3 (stably expressing PDGFRβ kinase), mouse Tel-RET-BaF3 (stably expressing RET kinase). The above cell lines were all constructed by our laboratory according to the following method: the kinase region sequences of human P210, P210/T315I, FLT3/ITD, FLT3, cKIT, cKIT/T670I, VEGFR2, PDGFRα, PDGFRβ, RET were respectively amplified by PCR, and inserted into MSCV-Puro vectors having N-terminal TEL or TPR fragments (Clontech). The vectors were stably transfected into mouse BaF3 cells by means of retrovirus, and the growth factor IL-3 were removed, eventually obtaining cell lines that depend on transferred protein P210, P210/T315I, FLT3/ITD, FLT3, cKIT, cKIT/T670I, VEGFR2, PDGFRα, PDGFRβ, or RET.
GI50 (unit: μM) was calculated by quantifying the number of living cells based on quantitative measurement of reductive dehydrogenase in living cells with CCK8 cell viability assay kit (Bestbio, China).

[6] = tested on: FLT3-ITD-BaF3; experiment: Proliferation of FLT3-ITD-BaF3 cells, CCK8 cell viability assay; format: cell-based; conditions: Mus musculus, 72 hours, stably expressing FLT3/ITD
How it was run: as §1

[7] = tested on: Tel-cKit-BaF3; experiment: Proliferation of Tel-cKit-BaF3 cells, CCK8 cell viability assay; format: cell-based, mouse; conditions: Mus musculus; 72 hours, CCK8; stably expressing cKIT kinase
How it was run: as §2

[8] = tested on: TEL-PDGFRβ-BaF3; experiment: Proliferation of TEL-PDGFRβ-BaF3 cells, CCK8 cell viability assay; format: cell-based; conditions: Mus musculus, 72 hours, stably expressing PDGFRβ kinase
How it was run: as §2

[9] = tested on: Tel-cKit/T670I-BaF3; experiment: Proliferation of Tel-cKit/T670I-BaF3 cells, CCK8 cell viability assay; format: cell-based; conditions: Mus musculus, 72 hours, stably expressing cKIT/T670I
How it was run: as §2

[10] = tested on: Tel-FLT3-BaF3; experiment: Proliferation of Tel-FLT3-BaF3 cells, CCK8 cell viability assay; format: cell-based; conditions: Mus musculus, 72 hours, stably expressing FLT3 kinase
How it was run: as §1

[11] = tested on: BaF3; experiment: Proliferation of BaF3 cells, CCK8 cell viability assay; format: cell-based; conditions: Mus musculus, 72 hours
How it was run: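 Murine BaF3 lines carry retrovirally transduced human kinase domains fused to an N-terminal TEL fragment (cKIT, PDGFRα or PDGFRβ), and IL-3 is withdrawn so their growth depends on the fused kinase; parental BaF3 serves as the reference line. Living cells were quantified by CCK8 dehydrogenase activity, giving GI50 in μM.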

GI50 [1]	GI50 [2]	GI50 [3]	GI50 [4]	GI50 [5]	GI50 [6]	GI50 [7]	GI50 [8]	GI50 [9]	GI50 [10]	GI50 [11]	Compound
6.74 µM	0.001 µM	0.139 µM	> 10 µM	> 10 µM	0.004 µM	0.524 µM	0.003 µM	> 10 µM	0.017 µM	> 10 µM	CC(=O)Nc1cc(Oc2ccc(NC(=O)Cc3ccc(Cl)cc3Cl)cc2)ncn1 [Example 8, N-[4-(6-acetylamino-pyrimidin-4-yloxy)-phenyl]-2-(2,4-dichloro-phenyl)-acetamide]
> 10 µM	0.077 µM	3.1 µM	> 10 µM	> 10 µM	0.331 µM	> 10 µM	0.356 µM	> 10 µM	1.76 µM	> 10 µM	COc1ccccc1CC(=O)Nc1ccc(Oc2cc(NC(C)=O)ncn2)cc1 [Example 24, N-[4-(6-acetylamino-pyrimidin-4-yloxy)-phenyl]-2-(2-methoxy-phenyl)-acetamide]
> 10 µM	0.11 µM	8.3 µM	> 10 µM	> 10 µM	0.34 µM	> 10 µM	0.75 µM	> 10 µM	1.1 µM	> 10 µM	COCCNc1cc(Oc2ccc(NC(=O)Nc3ccc(CN4CCN(C)CC4)cc3)cc2)ncn1 [Example 172, 1-{4-[6-(2-methoxy-ethylamino)-pyrimidin-4-yloxy]-phenyl}-3-[4-(4-methyl-piperazin-1-ylmethyl)-phenyl]-urea]
> 10 µM	0.005 µM	2.58 µM	> 10 µM	> 10 µM	0.206 µM	0.855 µM	0.007 µM	9.22 µM	0.814 µM	> 10 µM	CC(C)C(=O)Nc1cc(Oc2ccc(NC(=O)Cc3cccc(C(F)(F)F)c3)cc2)ncn1 [Example 50, N-(6-{4-[2-(3-trifluoromethyl-phenyl)-acetylamino]-phenoxy}-pyrimidin-4-yl)-isobutyramide]
> 10 µM	0.02 µM	0.229 µM	> 10 µM	0.672 µM	0.204 µM	2.13 µM	0.029 µM	8.64 µM	0.649 µM	> 10 µM	CC(=O)Nc1cc(Oc2ccc(NC(=O)Cc3cccc(Oc4ccccc4)c3)cc2)ncn1 [Example 12, N-[4-(6-acetylamino-pyrimidin-4-yloxy)-phenyl]-2-(3-phenoxy-phenyl)-acetamide]
> 10 µM	0.165 µM	–	> 10 µM	> 10 µM	0.17 µM	5.68 µM	0.154 µM	> 10 µM	1.57 µM	> 10 µM	COCCNc1cc(Oc2ccc(NC(=O)Nc3ccc(C(F)(F)F)cc3)cc2)ncn1 [Example 73, 1-{4-[6-(2-methoxy-ethylamino)-pyrimidin-4-yloxy]-phenyl}-3-(4-trifluoromethyl-phenyl)-urea]
> 10 µM	0.14 µM	0.41 µM	> 10 µM	6.38 µM	0.153 µM	1.66 µM	0.49 µM	4.68 µM	0.797 µM	> 10 µM	Cc1ccc(NC(=O)Nc2ccc(Oc3cc(N[C@@H](C)C(=O)O)ncn3)cc2)cc1C(F)(F)F [Example 126, (6-(4-(3-(4-methyl-3-(trifluoromethyl)phenyl)ureido)phenoxy)pyrimidin-4-yl)-L-aminopropionic Acid]
5.36 µM	0.021 µM	5.09 µM	3.93 µM	4.18 µM	0.168 µM	5.19 µM	0.33 µM	2.4 µM	0.58 µM	5.06 µM	Cc1ccc(NC(=O)NC2CCC(Oc3cc(NCCO)ncn3)CC2)cc1C(F)(F)F (centres unmarked) [Example 40, 1-{4-[6-(2-hydroxy-ethylamino)-pyrimidin-4-yloxy]-cyclohexyl}-3-(4-methyl-3-trifluoromethyl-phenyl)-urea]
5.38 µM	0.094 µM	3.77 µM	4.11 µM	3.59 µM	0.274 µM	5.18 µM	0.096 µM	3.91 µM	0.198 µM	5.5 µM	Cc1ccc(NC(=O)N[C@H]2CC[C@H](Oc3cc(NCCO)ncn3)CC2)cc1C(F)(F)F [Example 42, 1-((1R,4R)-4-((6-((2-hydroxyethyl)amino)pyrimidin-4-yl)oxy)cyclohexyl)-3-(4-methyl-3-(trifluoromethyl)phenyl)urea]
> 10 µM	0.012 µM	0.853 µM	> 10 µM	0.247 µM	0.247 µM	> 10 µM	0.109 µM	> 10 µM	0.818 µM	> 10 µM	CC(=O)Nc1cc(Oc2ccc(NC(=O)Cc3cccc(F)c3F)cc2)ncn1 [Example 16, N-[4-(6-acetylamino-pyrimidin-4-yloxy)-phenyl]-2-(2,3-difluoro-phenyl)-acetamide]
> 10 µM	0.035 µM	0.518 µM	> 10 µM	> 10 µM	0.067 µM	3.21 µM	0.07 µM	> 10 µM	0.236 µM	> 10 µM	CC(=O)Nc1cc(Oc2ccc(NC(=O)Cc3cc(C)ccc3C)cc2)ncn1 [Example 7, N-[4-(6-acetylamino-pyrimidin-4-yloxy)-phenyl]-2-(2,5-dimethyl-phenyl)-acetamide]
> 10 µM	0.089 µM	1.24 µM	> 10 µM	> 10 µM	0.284 µM	> 10 µM	0.341 µM	> 10 µM	0.713 µM	> 10 µM	CC(=O)Nc1cc(Oc2ccc(NC(=O)C(O)c3ccc(Br)cc3)cc2)ncn1 (centres unmarked) [Example 14, N-[4-(6-acetylamino-pyrimidin-4-yloxy)-phenyl]-2-(4-bromo-phenyl)-2-hydroxy-acetamide]
4.43 µM	0.059 µM	2.9 µM	4.69 µM	3.18 µM	0.109 µM	5.12 µM	0.233 µM	0.707 µM	0.263 µM	7.8 µM	COCCNc1cc(OC2CCC(NC(=O)Nc3ccc(C)c(C(F)(F)F)c3)CC2)ncn1 (centres unmarked) [Example 41, 1-{4-[6-(2-methoxy-ethylamino)-pyrimidin-4-yloxy]-cyclohexyl}-3-(4-methyl-3-trifluoromethyl-phenyl)-urea]
> 10 µM	0.004 µM	0.304 µM	> 10 µM	> 10 µM	0.002 µM	0.584 µM	0.01 µM	5.63 µM	0.012 µM	> 10 µM	CC(=O)Nc1cc(Oc2ccc(NC(=O)Cc3cccc([N+](=O)[O-])c3C)cc2)ncn1 [Example 9, N-[4-(6-acetylamino-pyrimidin-4-yloxy)-phenyl]-2-(2-methyl-3-nitro-phenyl)-acetamide]
> 10 µM	0.013 µM	0.553 µM	> 10 µM	0.229 µM	0.129 µM	> 10 µM	0.105 µM	> 10 µM	0.744 µM	> 10 µM	CC(=O)Nc1cc(Oc2ccc(NC(=O)Cc3ccccc3Br)cc2)ncn1 [Example 17, N-[4-(6-acetylamino-pyrimidin-4-yloxy)-phenyl]-2-(2-bromo-phenyl)-acetamide]
